From patent US11352352B2, “Aminopyrimidine compound, preparation method therefor and use thereof” (BEIJING ADAMADLE BIOTECHNOLOGY LIMITED LIABILITY COMPANY, priority 2017, dated 2022)

Legend:
[1] = test system: PC-9; assay: Cell proliferation inhibition experiment, CellTiter-Glo (CTG) method; format: cell-based; details: PC-9 cells, 3 days
In short: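 Cells in log-phase growth (viability above 90% by trypan blue) were seeded at 90 μL per well in black-walled, clear-bottom 96-well plates and incubated overnight at 37° C., 5% CO2. A T0 plate was read the next day. Test compounds were added at nine concentrations in triplicate with a solvent control. Viability was measured by CellTiter-Glo luminescence on EnVision, and IC50 came from non-linear S-curve fitting in GraphPad Prism 5.0.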

[2] = test system: NCI-H1975; assay: as above; format: cell-based; details: for IC50: NCI-H1975 cells, CTG, 3 days; for A-431/NCI-H1975 Selectivity: ratio of A-431 IC50 to NCI-H1975 IC50
In short: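 NCI-H1975 cells with viability above 90% by trypan blue were seeded at 90 μL per well in black 96-well plates and incubated overnight at 37° C., 5% CO2. Compounds were added at nine concentrations in triplicate, and viability was measured with CellTiter-Glo luminescence on EnVision. IC50 came from non-linear S-curve fitting in GraphPad Prism 5.0.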

[3] = test system: A-431; assay: as above; format: cell-based; details: A-431 cells, 3 days
In short: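 Luminescent ATP read-out (CellTiter-Glo) after 3-day compound exposure at 37 °C; a T0 plate was read on the day of dosing. Nine concentrations, 3-fold steps, triplicate wells: A-431 from 30 μM, NCI-H1975 and PC-9 from 1.111 μM. IC50 by non-linear S-curve regression.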

[4] = target: T1, P-gp (Homo sapiens, UniProt P08183); assay: P-gp substrate evaluation experiment (MDCKII-MDR1 Transwell drug penetration test); format: in vitro ADME; details: dog, MDCK-MDR1, pH 7.4; read-out: ER (Efflux Ratio)
T1 construct: expressed in transfected cells; host or cells: MDCKII-MDR1 (MDCKII canine kidney cells expressing MDR1)
Description: P-gp Substrate Evaluation Experiment
Cell Culture • 1) High glucose DMEM medium containing L-glutamine was used and 10% fetal bovine serum, 0.1 mg/mL streptomycin and 0.6 mg/mL penicillin were added. • 2) MDCKII-MDR1 was cultured in a T-75 cell culture bottle. The incubator was set at the condition of 37° C., 5% CO2 and 95% relative humidity. Cells could be inoculated in Transwell when the cell confluence reached 70-90%. • 3) Before cell plant, 50 μL cell culture medium was added to each well in the upper chamber of the Transwell, and […] cell culture medium was added to the lower chamber of the Transwell.
Inoculation of MDCKII-MDR1 Cells • 1) Cell suspension was added to the upper chamber of the 96-well Transwell plate with […] each well, and the final inoculation density was 5.45×10^5 cells/cm^2. • 2) The medium was changed 48 hours after inoculation, the culture was carried out for 4-7 days, and the medium was changed every other day.
Evaluation of Cell Monolayer Integrity • 1) After 4-7 days of culture, MDCKII-MDR1 and MDKII should merge and differentiate completely. At this time, they could be applied to penetration test. • 2) The resistance of cell monolayer was measured by a resistance meter (Millipore, USA) and the resistance of each well was recorded. • 3) After finishing the detection, the Transwell plate was put back into the incubator. • 4) Resistance value was calculated: Resistance measured (ohms)×layer area (cm^2)=TEER value (ohm·cm^2)
If TEER value was less than 42 ohms·cm^2, the well can not be used for penetration testing.
Drug Penetration Test • 1) The MDCKII-MDR1 Transwell plate was taken out from the incubator. The cell monolayer was rinsed with HBSS buffer (25 mM HEPES, pH 7.4) twice and incubated for 30 minutes at 37° C. • 2) The transport rate of compounds from the top to the bottom was determined. […] 70 μL supernatant was drawn, diluted with equal volume of water and then subjected to LC-MS/MS analysis. All samples were prepared in three parallel ways. • 6) The cell monolayer integrity after 2-hour incubation was evaluated by leakage of fluorescent yellow, HBSS (25 mM HEPES, pH 7.4) was used to dilute the stock solution of fluorescent yellow till the final concentration was 100 μM. 100 μL fluorescent yellow solution was added to each well in the upper chamber of the Transwell plate and 300 μL HBSS (25 mM HEPES, pH 7.4) was added to each well in the lower chamber of the Transwell plate. After incubation at 37° C. for 30 minutes, 80 μL solution was drawn respectively from each well in the upper and lower chamber to a new 96-well plate. The fluorescence was determined at 485 nm as excitation wavelength and 530 nm as emission wavelength by using a microplate reader.
Data calculation was carried out through Excel, the apparent permeability index (Papp, cm/s) of compounds was calculated through the formula shown as follow: […]
wherein, the membrane area in the formula is the membrane area of Transwell-96 plate (0.143 cm^2); the unit of incubation time is second (s).
Efflux ratio was calculated through the formula shown as follow: […]

T1 sequence (P08183 whole entry): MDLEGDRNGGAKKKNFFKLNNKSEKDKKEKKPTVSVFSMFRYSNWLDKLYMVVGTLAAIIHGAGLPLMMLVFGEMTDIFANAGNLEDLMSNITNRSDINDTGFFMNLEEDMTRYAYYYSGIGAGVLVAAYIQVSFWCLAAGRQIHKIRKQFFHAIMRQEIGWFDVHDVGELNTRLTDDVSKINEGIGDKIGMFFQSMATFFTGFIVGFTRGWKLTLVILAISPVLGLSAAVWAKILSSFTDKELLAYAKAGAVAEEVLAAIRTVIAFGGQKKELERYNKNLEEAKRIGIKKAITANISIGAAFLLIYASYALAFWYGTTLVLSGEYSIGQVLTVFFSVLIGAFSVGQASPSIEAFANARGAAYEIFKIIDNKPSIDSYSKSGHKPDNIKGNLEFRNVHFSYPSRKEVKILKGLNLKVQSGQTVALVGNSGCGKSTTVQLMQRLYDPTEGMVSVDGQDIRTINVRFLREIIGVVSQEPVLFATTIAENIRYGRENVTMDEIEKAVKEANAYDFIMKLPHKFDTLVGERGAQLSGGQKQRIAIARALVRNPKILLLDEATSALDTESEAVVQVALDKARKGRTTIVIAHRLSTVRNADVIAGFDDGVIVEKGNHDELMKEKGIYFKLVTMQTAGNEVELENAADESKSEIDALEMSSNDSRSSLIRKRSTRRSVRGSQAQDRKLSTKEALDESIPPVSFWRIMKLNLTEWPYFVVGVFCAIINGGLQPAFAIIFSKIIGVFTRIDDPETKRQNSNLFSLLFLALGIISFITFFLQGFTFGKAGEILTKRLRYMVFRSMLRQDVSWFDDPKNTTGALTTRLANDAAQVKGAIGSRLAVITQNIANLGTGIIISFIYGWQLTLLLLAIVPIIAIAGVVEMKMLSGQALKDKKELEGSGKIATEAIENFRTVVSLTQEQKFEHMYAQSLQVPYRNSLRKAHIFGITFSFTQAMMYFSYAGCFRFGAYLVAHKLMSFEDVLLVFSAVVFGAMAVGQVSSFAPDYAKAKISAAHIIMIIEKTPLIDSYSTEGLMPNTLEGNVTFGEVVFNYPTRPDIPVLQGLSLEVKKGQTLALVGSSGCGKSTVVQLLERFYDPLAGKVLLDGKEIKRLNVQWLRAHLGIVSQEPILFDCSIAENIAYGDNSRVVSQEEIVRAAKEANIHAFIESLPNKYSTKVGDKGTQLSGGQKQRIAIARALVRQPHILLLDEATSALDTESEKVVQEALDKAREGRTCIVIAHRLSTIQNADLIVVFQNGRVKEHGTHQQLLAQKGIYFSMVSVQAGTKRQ

Row | SMILES | IC50 ([1]; Homo sapiens, PC-9, 72 h) | IC50 ([2]; Homo sapiens, NCI-H1975, 72 h) | IC50 ([3]; Homo sapiens, A-431, 72 h) | efflux ratio at 2 h [4] | IC50 [1] | IC50 [2] | IC50 [3] | A-431/NCI-H1975 Selectivity [2]
1 | C=CC(=O)Nc1cc(Nc2cc(-c3ccc4c(cnn4C)c3)ncn2)c(OC)cc1N1CCC(N2C[C@@H](C)N(C)[C@@H](C)C2)CC1 [compound 100] | 15.3 nM | 5.7 nM | 654 nM | 20 | – | – | – | 114.7
2 | C=CC(=O)Nc1cc(Nc2cc(-c3ccc4ncsc4c3)ncn2)c(OC)cc1NCCN(C)C [compound 251] | 7 nM | 12.5 nM | 1100 nM | 42.6 | – | – | – | 88.2
3 | C=CC(=O)Nc1cc(Nc2cc(-c3ccc4c(cnn4C)c3)ncn2)c(OC)cc1N1CCC(N2CCCCC2)CC1 [compound 144] | 16.4 nM | 6.8 nM | 572 nM | 11.6 | – | – | – | 84.1
4 | C=CC(=O)Nc1cc(Nc2cc(-c3ccc4c(cnn4C)c3)ncn2)c(OC(F)F)cc1N1CCN(CCN(C)C)CC1 [compound 115] | 9 nM | 5.3 nM | 533 nM | 41.9 | – | – | – | 100.5
5 | C=CC(=O)Nc1cc(Nc2cc(-c3ccc4cnn(C)c4c3)ncn2)c(OC)cc1N1CCC(N2C[C@@H](C)O[C@@H](C)C2)CC1 [compound 155] | 6 nM | 13.6 nM | 874 nM | 0.93 | – | – | – | 64.2
6 | C=CC(=O)Nc1cc(Nc2cc(-c3ccc4c(cnn4C)c3)ncn2)c(OC)cc1N1CCN(CCOC)CC1 [compound 99] | 43.2 nM | 9.8 nM | 886 nM | 1.54 | – | – | – | 90.4
7 | C=CC(=O)Nc1cc(Nc2cc(-c3ccc4c(cnn4C)c3)ncn2)c(OC)cc1N1CCC(N2CCOCC2)CC1 [compound 27] | – | – | – | 1.67 | 21.6 nM | 14.2 nM | 387 nM | 27.2
8 | C=CC(=O)Nc1cc(Nc2cc(-c3ccc4cnn(C)c4c3)ncn2)c(OC(F)F)cc1N1CCC(N2CCCC2)CC1 [compound 164] | 23.2 nM | 12.6 nM | 591 nM | 34.4 | – | – | – | 46.9
9 | C=CC(=O)Nc1cc(Nc2cc(-c3ccc4cnn(C)c4c3)ncn2)c(OC)cc1N1CCC(N(C)C)CC1 [compound 173] | 7.3 nM | 22.7 nM | 1050 nM | 32.2 | – | – | – | 46.5
10 | C=CC(=O)Nc1cc(Nc2cc(-c3ccc4c(cnn4C)c3)ncn2)c(OC)cc1N1CCC(C2CCN(C)CC2)CC1 [compound 34] | 10.7 nM | 26.3 nM | 1950 nM | 6.12 | – | – | – | 74.1
11 | C=CC(=O)Nc1cc(Nc2cc(-c3ccc4cnn(C)c4c3)ncn2)c(OC)cc1N1CCC(N2CCCCC2)CC1 [compound 179] | 2.9 nM | 16.2 nM | 984 nM | 17.1 | – | – | – | 60.7
12 | C=CC(=O)Nc1cc(Nc2cc(-c3ccc4c(cnn4C)c3)ncn2)c(OC)cc1N1CCN(CCO)CC1 [compound 267] | 29.3 nM | 16.1 nM | 1040 nM | 14.6 | – | – | – | 64.4
13 | C=CC(=O)Nc1cc(Nc2cc(-c3ccc4cnn(C)c4c3)ncn2)c(OC)cc1N1CCC(N2CCCC2)CC1 [compound 158] | 4.9 nM | 9.4 nM | 680 nM | 15.3 | – | – | – | 72.4
14 | C=CC(=O)Nc1cc(Nc2cc(-c3ccc4cnn(C)c4c3)ncn2)c(OC)cc1N1CCC(N2CCC(OC)C2)CC1 (stereo not shown) [compound 203] | 7.2 nM | 8.1 nM | 982 nM | 6.51 | – | – | – | 121.2
15 | C=CC(=O)Nc1cc(Nc2cc(-c3ccc4c(cnn4C)c3)ncn2)c(OC)cc1N1CCC(N2CCN(C(C)=O)CC2)CC1 [compound 129] | 13.1 nM | 8 nM | 746 nM | 55.7 | – | – | – | 93.3
16 | C=CC(=O)Nc1cc(Nc2cc(-c3ccc4c(cnn4C)c3)ncn2)c(OC)cc1N(C)C1CCN(C2CCN(C)CC2)CC1 [compound 70] | 14.7 nM | 17.6 nM | 1160 nM | 41.4 | – | – | – | 66.1

Continued, in another order:

Row | IC50 ([1]; Homo sapiens, PC-9, 72 h) | IC50 ([2]; Homo sapiens, NCI-H1975, 72 h) | IC50 ([3]; Homo sapiens, A-431, 72 h) | efflux ratio at 2 h [4] | IC50 [1] | IC50 [2] | IC50 [3] | SMILES | A-431/NCI-H1975 Selectivity [2]
17 | 15.7 nM | 33.5 nM | 1170 nM | 2.44 | – | – | – | C=CC(=O)Nc1cc(Nc2cc(-c3ccc4c(cnn4C)c3)ncn2)c(OC)cc1N(C)CCN(CC)CC [compound 62] | 35.0
18 | 9.6 nM | 10.6 nM | 2300 nM | 6.49 | – | – | – | C=CC(=O)Nc1cc(Nc2cc(-c3ccc4c(cnn4C)c3)ncn2)c(OC)cc1N(C)CCN1CCN(C)CC1 [compound 60] | 217.0
19 | 7.9 nM | 4.1 nM | 491 nM | 5.87 | – | – | – | C=CC(=O)Nc1cc(Nc2nccc(-c3ccc4c(cnn4C)c3)n2)c(OC)cc1N(C)CCN(C)C [compound 3] | 120.3
20 | 14.2 nM | 6 nM | 544 nM | 3.12 | – | – | – | C=CC(=O)Nc1cc(Nc2cc(-c3ccc4c(cnn4C)c3)ncn2)c(OC)cc1OCCN(C)C [compound 104] | 90.6
21 | 3.8 nM | 25.1 nM | 894 nM | 3.07 | – | – | – | C=CC(=O)Nc1cc(Nc2cc(-c3ccc4cnn(C)c4c3)ncn2)c(OC)cc1N(C)CCN(C)CC [compound 180] | 35.6
22 | 27.3 nM | 3.5 nM | 872 nM | 3.14 | – | – | – | C=CC(=O)Nc1cc(Nc2cc(-c3ccc4c(cnn4C)c3)ncn2)c(OC)cc1N1CCN(C)CC1 [compound 8] | 251.1
23 | 4.8 nM | 21.2 nM | 1080 nM | 3.98 | – | – | – | C=CC(=O)Nc1cc(Nc2cc(-c3ccc4cnn(C)c4c3)ncn2)c(OC(F)F)cc1N(C)CCN(C)C [compound 176] | 50.9
24 | 8.2 nM | 9.1 nM | 654 nM | 67.9 | – | – | – | C=CC(=O)Nc1cc(Nc2cc(-c3ccc4c(cnn4CC)c3)ncn2)c(OC)cc1N1CCN(CCN(C)C)CC1 [compound 116] | 71.9
25 | 14.8 nM | 9.6 nM | 578 nM | 51.7 | – | – | – | COc1cc(N(C)CCN(C)C)c(NC(=O)/C=C/CN(C)C)cc1Nc1cc(-c2ccc3c(cnn3C)c2)ncn1 [compound 131] | 60.2
26 | 8.1 nM | 11.8 nM | 1060 nM | 1.05 | – | – | – | C=CC(=O)Nc1cc(Nc2cc(-c3ccc4c(cnn4C)c3)ncn2)c(OC)cc1N1C[C@@H](C)N(C)[C@@H](C)C1 [compound 24] | 90.1
